Where two headings read alike, the source gives them in different places. No end group written: not given here.
Legend:
Elk-1 = target: T1, Elk-1 (Homo sapiens, UniProt P19419); test: Co-immunoprecipitation of MZF-1-c-Myc fragments with FLAG-Elk-1 in transfected HEK-293 cells; format: binding; conditions: FLAG-Elk-1 plus c-Myc fragment
T1 construct: FLAG-Elk-1; 1-428; expressed in transfected cells; host or cells: HEK-293
T1 sequence (P19419 1-428): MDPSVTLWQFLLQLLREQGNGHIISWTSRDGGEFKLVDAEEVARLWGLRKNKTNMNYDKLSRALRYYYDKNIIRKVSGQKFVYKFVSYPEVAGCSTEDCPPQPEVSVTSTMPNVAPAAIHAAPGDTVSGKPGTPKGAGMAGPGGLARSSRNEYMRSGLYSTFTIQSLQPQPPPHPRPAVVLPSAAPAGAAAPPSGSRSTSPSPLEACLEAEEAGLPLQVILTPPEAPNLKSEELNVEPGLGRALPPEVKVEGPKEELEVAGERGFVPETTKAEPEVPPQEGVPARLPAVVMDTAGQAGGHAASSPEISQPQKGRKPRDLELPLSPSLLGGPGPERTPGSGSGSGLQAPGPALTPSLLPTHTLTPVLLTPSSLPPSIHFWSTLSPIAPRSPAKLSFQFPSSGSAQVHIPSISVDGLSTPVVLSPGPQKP
Experimental: Red bands indicate the fragments that bound Elk-1 as present in the co-immunoprecipitation assay (lower panel). HEK-293 cells were transfected with 5 μg FLAG-Elk-1 and either empty vector or the indicated MZF-1-c-Myc fragment. The c-Myc-fused peptides were Immunoprecipitation by c-Myc monoclonal antibody and then Immunoblotting with the anti-FLAG antibodies. Lysates of HEK-293 cells transfected with the FLAG-Elk-1 only were also Immunoblotting as a control (Input).
MZF-1 contains an acidic domain (amino acids 60-72) with six aspartates or glutamates upstream of the zinc finger regions. To identify the specific residues through which MZF-1 interacts with Elk-1 we designed various protein fragments containing only the relevant interacting domains for co-immunoprecipitation assays (FIG. 14, top). The full-length MZF-1 and MZF-11-72, MZF-11-141, and MZF-160-72 fragments (all contain the acidic domain) all bound Elk-1 (FIG. 14, lower panel) but not MZF-11-60 or MZF-173-485.

[1] = target: T2, Elk-1 and MZF-1 DNA-binding activity at the PKCα promoter (Homo sapiens, UniProt P19419+P28698); test: EMSA of Elk-1 and MZF-1 binding to PKCα promoter probe, nuclear extracts of transfected HEK-293 cells; format: biochemical; conditions: biotin-labeled WT PKCα promoter probe
T2 construct: Primers and restriction enzyme (R.E.) sites for the full-length and truncated MZF-1, Elk-1; expressed in transfected cells; host or cells: HEK-293 (nuclear extracts)
Experimental: The biotin-labeled WT oligonucleotide probes were incubated with the indicated concentration of nuclear extracts of the different-treated HEK-293 cells, which were transfected with empty vector, Elk-1, MZF-1, MZF-160-72 or mutant MZF-160-72 and the reactions were resolved on a nondenaturing polyacrylamide gel. DNA-protein complexes are indicated by the black arrow-head.
The biotin-labeled wild-type oligonucleotide probes were incubated with the indicated concentration of nuclear extracts of the different-treated HEK-293 cells, which were transfected with empty vector, Elk-1, MZF-1, Elk-1145-157 or mutant Elk-1145-157.
EMSA analysis was performed using a LightShift™ chemiluminescent EMSA kit (Pierce). 15 μg of nuclear extract was used for each EMSA analysis. […] The membrane was immediately cross-linked at 120 mJ/cm^2 using an UV transilluminator and then analyzed via chemiluminescence according to the manufacturer's instructions.

MDA-MB-231 cells = test: MTT cell viability with anti-cancer drugs, MDA-MB-231 cells; format: cell-based, human; conditions: read-out: 50% inhibitory concentration (IC50), cell viability
Experimental: The level of multidrug resistance protein permeability glycoprotein (P-gp) was determined by upper panel. Cell growth was determined using the MTT assay 2 days after treatment (lower panel).
Cell proliferation was analyzed using the yellow tetrazolium (MTT) assay. Cells were seeded in 24-well plates at 1×10^4 cells/well and cultured in DMEM containing 10% FCS at 37° C. overnight. Cells were treated with or without various plasmids and incubated for 24 or 48 h. After incubation, the medium was replaced with fresh medium, and the cells were incubated with 1 mg/ml MTT for 3 h before being dissolved in 1 ml of DMSO for 30 min. The optical density at 570 nm was measured using a spectrophotometer.
To determine if MZF-160-72 peptide-mediated decrease in P-gp expression sensitizes breast cancer cells to chemotherapeutic agents, MZF-160-72-expressing MDA-MB-231 stable cells were treated with acriflavine and cisplatin (commonly used to treat breast cancer-insert) and their cell viability measured.

Hs578T cells = test: MTT cell viability with anti-cancer drugs, Hs578T cells; format: cell-based, human
[2] = system: Hs578T and MDA-MB-231 cells; test: Cell migration assay after treatment with TAT-fused peptides; format: cell-based, human; conditions: 3 days after addition of the peptides
Experimental: The cell migration assay was performed 3 days after the addition of the peptides to the cells.
(§1) The TAT-fused peptides were designed such that the TAT moiety corresponds to amino acid residues 48-57 of the HIV TAT protein, the MZF-160-72 moiety corresponds to residue 60-72 of the human MZF-1 protein and the Elk-1145-157 moiety corresponds to residues 145-157 of the human Elk-1 protein. The TAT and MZF-1/Elk-1 moieties were linked by three glycine linker residues. The TAT-fused peptide MZF-1 normal fragment (60-72; […] as SEQ ID NO: 57), MZF-1 mutant fragment (60-72; […] as SEQ ID NO: 58), Elk-1 normal fragment (145-157; […] as SEQ ID NO: 59), and Elk-1 mutant fragment (145-157; […] as SEQ ID NO: 60) were synthesized by MDBio, Inc. (Taipei, Taiwan). For transduction of the TAT fusion proteins cells were cultured to 50-60% confluence. The culture medium was removed and replaced with fresh, serum-free medium, followed by the addition of the TAT fusion proteins at the indicated concentrations. Three days post-treatment the cells were used for migration assays and western blotting.
The migration assay was performed using a 48-well Boyden chamber (Neuro Probe) plated with 8-μm pore size polycarbonate membrane filters (Neuro Probe). […] The migratory phenotypes were determined by counting the cells that migrated to the lower side of the filter through microscopy at 200× magnification.

[3] = system: Hs578T and MDA-MB-231 cells; test: Immunoblotting of protein levels in TAT-fused peptide-treated cells; format: cell-based, human; conditions: three days post-treatment
Excerpt: as §1

MZF-1/Elk-1 interaction = target: T3, MZF-1/Elk-1 interaction (Homo sapiens, UniProt P19419+P28698); test: Co-immunoprecipitation of MZF-1 and Elk-1 in HEK-293 lysates with added TAT-fused peptides; format: binding; conditions: 50, 100 and 150 nmol peptide added to lysates, overnight at 4° C.
T3 construct: FLAG-Elk-1; 1-428; MZF-1-c-Myc; 1-485; His (from the myc-His vector) (C); expressed in transfected cells; host or cells: HEK-293 (lysates)
Experimental: HEK-293 cells were transfected with empty vector, FLAG-Elk-1, MZF-1-c-Myc, FLAG-MZF-1 or Elk-1-cMyc construct. ‘+’ indicates the presence of each item and ‘-’ indicates their absence. Different concentrations (50, 100 and 150 nmol) of TAT-fused peptides (normal or mutant) were then added to the lysates and incubated overnight at 4° C. and then subjected to immunoprecipitation with anti-c-Myc antibody, followed by immunoblotting against FLAG and c-Myc. Lysates of HEK-293 cells transfected with FLAG-Elk-1 or FLAG-MZF-1 vector indicated as a “Input”.

[4] = target: T4, FLAG-Elk-1 (amino acids 1-428) (human, UniProt P19419 1-428); test: co-immunoprecipitation (anti-c-Myc IP, anti-FLAG blot), HEK-293 cells
T4 construct: range 1-428; Full-length Elk-1 expressed in HEK-293 cells; not shown: FLAG tag
T4 sequence (looked up): T1 sequence (P19419 1-428)

[5] = target: T5, FLAG-MZF-1 (amino acids 1-485) (human, UniProt P28698-2 1-485); test: co-immunoprecipitation, HEK-293 cells
T5 construct: range 1-485; Full-length MZF-1 expressed in HEK-293 cells; not shown: FLAG tag

[6] = MDA-MB-231 cells before MZF-160-72 expression (parental)
[7] = MZF-160-72-expressing MDA-MB-231 stable cells
[8] = Hs578T cells before MZF-160-72 expression (parental)
[9] = MZF-160-72-expressing Hs578T cells

T3 sequence (P28698 1-485 isoform P28698-2, one chain of several): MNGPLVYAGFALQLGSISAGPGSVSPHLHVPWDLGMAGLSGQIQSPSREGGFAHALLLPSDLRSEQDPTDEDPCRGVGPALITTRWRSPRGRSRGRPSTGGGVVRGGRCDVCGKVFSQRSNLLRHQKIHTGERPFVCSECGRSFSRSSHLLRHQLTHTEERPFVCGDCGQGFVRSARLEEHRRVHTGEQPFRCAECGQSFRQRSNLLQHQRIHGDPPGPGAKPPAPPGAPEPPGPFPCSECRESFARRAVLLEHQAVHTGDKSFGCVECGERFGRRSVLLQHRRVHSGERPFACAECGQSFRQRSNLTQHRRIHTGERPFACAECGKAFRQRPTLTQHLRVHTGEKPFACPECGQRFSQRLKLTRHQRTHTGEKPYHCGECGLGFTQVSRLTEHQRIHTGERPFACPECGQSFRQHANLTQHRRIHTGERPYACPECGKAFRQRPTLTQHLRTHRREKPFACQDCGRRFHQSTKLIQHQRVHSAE
T2 sequence (P28698 1-485 isoform P28698-2, one chain of several): as above

“mutant MZF-160-72: MZF-1 60-72 fragment with aspartates D61, D67, D70 and D72 changed to uncharged alanine” was tested, and the “binding to Elk-1 (co-immunoprecipitation)” value (Elk-1) was “substantially decreased” and the “Elk-1 and MZF-1 DNA-binding activity (EMSA)” value [1] was “did not affect their binding activity”.

In the case of acriflavine, the IC50 (MDA-MB-231 cells; [6]) is reported as 2.43 µM, the IC50 (MDA-MB-231 cells; [7]) is reported as 1.49 µM and the IC50 (Hs578T cells; [8]) is reported as 2.56 µM. It also gave an IC50 (Hs578T cells; [9]) of 1.33 µM.

For “YGRKKRRQRRRGGGDEDTPDQESRLDS (listed as Homo sapiens) [TAT-MZF-160-72, TAT-fused peptide MZF-1 normal fragment (60-72), three glycine linker residues]”, the cell migration [2] was “reduced cell migration”, the “levels of EMT-related (PKCα, Slug and Vimentin) proteins” value [3] was “noticeably increased” and the “levels of MET-related (E-cadherin) proteins” value [3] was “decreased”. For the same molecule, the “binding of MZF-1 to Elk-1 and vice versa (co-immunoprecipitation)” value (MZF-1/Elk-1 interaction) was “reduced the binding of MZF-1 to Elk-1 and vice versa in a dose-dependent manner”.

Work on `N.N.[Cl][Pt][Cl]` [cisplatin] yielded an IC50 (MDA-MB-231 cells; [6]) of 23.7 µM, an IC50 (MDA-MB-231 cells; [7]) of 16.2 µM and an IC50 (Hs578T cells; [8]) of 28 µM. It also gave an IC50 (Hs578T cells; [9]) of 21.1 µM.

“YGRKKRRQRRRGGGLARSSRNEYMRSG (listed as Homo sapiens) [TAT-Elk-1145-157, TAT-fused peptide Elk-1 normal fragment (145-157), three glycine linker residues]” was tested, and the cell migration [2] was “reduced cell migration”, the “levels of EMT-related (PKCα, Slug and Vimentin) proteins” value [3] was “noticeably increased” and the “levels of MET-related (E-cadherin) proteins” value [3] was “decreased”. The “binding of MZF-1 to Elk-1 and vice versa (co-immunoprecipitation)” value (MZF-1/Elk-1 interaction) was “reduced the binding of MZF-1 to Elk-1 and vice versa in a dose-dependent manner”.

“Elk-1145-157: Heparin-binding domain fragment, amino acids 145-157 of human Elk-1; expressed as c-Myc-fused fragment (LARSSRNEYMRSG; also: c-Myc tag fusion; listed as Homo sapiens)” was tested, and the “Elk-1 and MZF-1 DNA-binding activity (EMSA)” value [1] was “decreased Elk-1 and MZF-1 DNA-binding activity in a dose-dependent manner”.

B1: MZF-1-c-Myc fragment, amino acids 1-60 (other, human, UniProt P28698-2 1-60, looked up)
chain: MNGPLVYAGFALQLGSISAGPGSVSPHLHVPWDLGMAGLSGQIQSPSREGGFAHALLLPS
notes: range 1-60; Expressed in HEK-293 cells; also called MZF-11-60; not shown: c-Myc(-His) tag from the pcDNA3.1/myc-His vector
B1: no binding [4].

B2: Elk-1-c-Myc fragment, amino acids 145-157 (Mutant) (peptide, UniProt P19419 145-157, looked up)
chain: LAASSANEYMASG
notes: not shown: c-Myc(-His) tag from the pcDNA3.1/myc-His vector
B2: no binding [5].

Reference: patent US20160362463A1, “Pharmaceutical composition inhibiting interaction between MZF-1 and Elk-1” (China Medical University, priority 2015, published 2016)
